US12678451B2, “Cannabinoid and omega fatty acid compositions and methods of using” (GreenWay Herbal Products, LLC, priority 2019, dated 2026)

Tested on: cytokines induced in mice by LPS
Test: Mouse LPS cytokine model, Example 6A Study 3, 1:1 CBD:CBDA in MCT oil
Assay type: in vivo
Details: 0.5 mg/kg
Description: A series of experiments using a mouse LPS cytokine animal model were performed. In the mouse LPS cytokine animal model, mice were injected with LPS, which induced the immune response shortly after the mice were injected with one of the potential anti-inflammatory compounds under evaluation (the “test compound”). The efficacy of the test compound was evaluated based on its ability to reduce expression levels of inflammatory cytokines that were elevated due to the immune response. The test compounds included a cannabinoid, an omega fatty acid, and a cannabinoid-omega fatty acid composition.
The mice were intraperitoneally injected with 0.1 mL of the test compound. One hour later, the mice were intraperitoneally injected with 0.1 mL of LPS in phosphate buffered saline (PBS). Four hours later, a heart puncture was performed and the blood was allowed to clot to generate serum. 0.1 mL of the serum was diluted 1:2 with PBS and stored at −80° C. The serum was then sent to a laboratory where a mouse cytokine array/chemokine array 31-plex (MD31) analysis was performed that analyzed the expression levels of the 32 cytokines/chemokines listed in Table 9, above.
For each considered test compound, the ability of the test compound to suppress each inflammatory cytokine was calculated by determining the percent suppression.
32 female C57BL/6 mice that weighed approximately 20 g each were allowed to acclimate for one week with unlimited access to food and water. On the day of the study, the mice were weighed and split into eight groups of four mice each so that the average weight of each group was as close as possible to each other.
The 1:1 CBD:CBDA test compounds were dosed at 5 mg/kg or 0.1 mg per 20 g mouse, 1.67 mg/kg or 0.033 mg per 20 g mouse, 0.5 mg/kg or 0.01 mg per 20 g mouse, 0.167 mg/kg or 0.0033 mg per 20 g mouse and 0.05 mg/kg or 0.001 mg per 20 g mouse. The test compounds were prepared as 1 mg/mL, 0.33 mg/mL, 0.1 mg/mL, 0.033 mg/mL and 0.01 mg/mL solutions in MCT oil for a 0.1 mL injection. […] The LPS was dosed at 0.1 mg/kg or 0.002 mg per 20 g mouse. The LPS was prepared as a 0.02 mg/mL solution in PBS for a 0.1 mL injection.

With C[C@@H]1C[C@H]2[C@@H]3CCC4=CC(=O)C=C[C@]4(C)[C@@]3(F)[C@@H](O)C[C@]2(C)[C@@]1(O)C(=O)CO [Dexamethasone, dexamethasone] the “AVERAGE SUPPRESSION” value was 34.65%, the Eotaxin suppression was 55.51% and the IFNγ suppression was 14.14%. The IL-1β suppression was 61.12%, the IL-2 suppression was −15.63% and the IL-6 suppression was 78.65%. For the same compound, the IL-7 suppression was 12.53%, the IL-9 suppression was 5.23% and the IL-10 suppression was 46.83%. For the same compound, the “IL-12 p70 suppression” value was −46.46%, the “IL-12β p40 suppression” value was 29.69% and the IL-13 suppression was 21.00%. For the same compound, the IL-17 suppression was 53.81%, the IP-10 suppression was 38.48% and the KC suppression was 86.96%. The LIF suppression was 35.14%, the MCP-1 suppression was 69.72% and the MIG suppression was 37.08%. It also gave an MIP-1α suppression of 48.38%, an MIP-1β suppression of 32.24% and an MIP-2 suppression of 41.28%. For the same compound, the RANTES suppression was 32.46%, the TNF-α suppression was 53.09% and the VEGF suppression was 66.07%.
